Experimental data reported in patent US20160051579A1, “NITRIC OXIDE TREATMENT OF BOVINE RESPIRATORY DISEASE COMPLEX AND OTHER RESPIRATORY CONDITIONS” (Bovicor Pharmatech, Inc., priority 2014, published 2016).
Entries after “also recorded” stand apart in the source; their conditions may differ.

What was measured:
[1] = test system: Trichophyton mentagrophytes; assay: Antifungal efficacy of NORS, mycelial viability; assay type: cell-based; settings: 0.14% sodium nitrite (pH 6) or citric acid at pH 3.7 alone, 30-minute exposure
Trichophyton rubrum = assay: Antifungal efficacy of NORS, mycelial viability; assay type: cell-based; settings: 0.14% sodium nitrite (pH 6) or citric acid at pH 3.7 alone, 30-minute exposure
[2] = cited from earlier work
BRDc = assay: Commercial feedlot trial NORS vs Micotil: BRDc incidence, relapse, mortality; assay type: in vivo, beef calves
Description: Commingled, multi-sourced, mixed-breed beef calves were purchased from auction markets for these studies. […] Animals identified for the study were to be approximately 6 months old with an estimated initial mean body weight of between 400-600 lbs. All animals were transported via commercial cattle liners to the feedlot. […] After a 24-hour acclimatization period, the calves were screened, enrolled, randomized, processed, weighed, and temperature measured with blood samples taken by a veterinarian.
(§1) NORS was delivered with a spray device specifically designed for the study. […] Animals in the control cohort received an injection of Micotil® of 2 mL/100 lb.
Animals identified by the pen keepers as appearing to be sick were “pulled” and brought into a barn. The animal was then placed in a catch chute and assessed by a veterinarian, who was blinded to the study, and assigned a clinical score to each animal.
BRDc was diagnosed as positive based on temperature greater than 103.5° F. and a clinical pulmonary score of 3 or greater.
At day 150, all animals were assessed for average daily weight gain and recorded.
Animals that died during the first 35 days of the study, for any reason, were sent for pathology testing (done by a board certified, blinded, veterinary pathologist). The following sections were tested: Lungs (left anterior, left middle, left caudal, right anterior, right middle, right caudal), heart, nasal mucosa, pharynx, Retropharyngeal L.N. and trachea. Diagnosis for the cause of death was determined by the pathologist.
Deaths of animals from day 35 to 150 were recorded and the farm's pathologist identified the cause of death.
In order to evaluate the difference in BRDc positive rates between NORS and Micotil® treated animals, a non-inferiority analysis was conducted. Specifically, the null hypothesis that the BRDc positive rate in the Bovinex group (pB) is more than 7.5% higher than the rate in the Micotil® group (pM) was tested using a nonparametric bootstrap: • H0: pB−pM≧7.5% • vs. • H1: pB−pM<7.5%

[3] = Commercial feedlot trial NORS vs Micotil: weight gain; assay type: in vivo, beef calves
Experimental: as §1
During the follow-up period (day 35 to day 60), relapses requiring antibiotic intervention were recorded as part of the normal feedlot routine. At day 150, all animals were assessed for average daily weight gain and recorded.
In order to evaluate the effect of treatment on 35-day weight change, a linear mixed effects model was fit to the data. Specifically, the effect of treatment on weight change was evaluated while controlling for baseline weight (fixed effect) and pen (random effect). Confidence intervals are based on the linear mixed effects model and account for the possibility of correlation of animals grouped together within the same pen.

[4] = in vivo; cited from earlier work

For O=C(O)CC(O)(CC(=O)O)C(=O)O [citric acid], the “effect of single component on mycelial growth” value (“effect of single component” for short) [1] was “Minimal to no effect; also recorded: no significant effect” and the “effect of single component” value (Trichophyton rubrum) was “Minimal to no effect; also recorded: no significant effect”.
For [N]=O [NO, Nitric Oxide], the “half-life in the body” value [2] is listed as “less than 6 s”.
With CC[C@H]1OC(=O)C[C@@H](O)[C@H](C)[C@@H](O[C@@H]2O[C@H](C)[C@@H](O)[C@H](N(C)C)[C@H]2O)[C@@H](CCN2C[C@H](C)C[C@H](C)C2)C[C@@H](C)C(=O)/C=C/C(C)=C/[C@@H]1CO[C@@H]1O[C@H](C)[C@@H](O)[C@@H](OC)[C@H]1OC [antibiotic, tilmicosin] the “# of BRDc positive animals” value (BRDc; Pen B2) was 1, the “% of BRDc positive animals” value (BRDc; Pen B2) was 0.7% and the “# of BRDc positive animals” value (BRDc; Pen B6) was 5. The “% of BRDc positive animals” value (BRDc; Pen B6) was 3.7%, the “# of BRDc positive animals” value (BRDc; Pen C3) was 3 and the “% of BRDc positive animals” value (BRDc; Pen C3) was 2.2%. For the same compound, the “# of BRDc positive animals” value (BRDc; Pen C7) was 8, the “% of BRDc positive animals” value (BRDc; Pen C7) was 6.2% and the “BRDc related deaths as diagnosed by the feedlot” value (BRDc; day 35-150) was 3. For the same compound, the animals that died (BRDc; day 35-150) was 12, the animals that died (BRDc; during the 35 days of the study) was 8 and the “animals pulled for suspected illness” value (BRDc; first 35 days) was “Thirty-three”. For the same compound, the number of relapses (BRDc; followed until day 150) was 10, the “# of BRDc positive animals” value (BRDc; total of cohort, 35 days) was 17 and the “% of BRDc positive animals” value (BRDc; total of cohort, 35 days) was 3.2%. The average daily gain ([3]; 35 days) was 2.0 lbs/day, the “average 35-day weight gain” value ([3]; baseline weight of 554 lbs) was 70 lbs and the average daily gain ([3]; day 150) was 2.61 lbs. For the same compound, the average gain ([3]; day 150) was 392 lbs and the “additional weight gain relative to those treated with NORS” value ([3]; over 35 days) was 5.5 lbs.
In the case of CCCNC[C@]1(O)[C@H](C)O[C@@H](O[C@H]2[C@H](C)[C@@H](O[C@@H]3O[C@H](C)C[C@H](N(C)C)[C@H]3O)[C@](C)(O)C[C@@H](C)CN[C@H](C)[C@@H](O)[C@](C)(O)[C@@H](CC)OC(=O)[C@@H]2C)C[C@@]1(C)OC [tulathromycin], the “time remaining in the pulmonary system” value [4] is given as ≤ 28 days.
For O=NO [sodium nitrite], the “effect of single component” value [1] was “Minimal to no effect”, the “effect of single component” value ([1]; listed as nitrites) was “no significant effect” and the “effect of single component” value (Trichophyton rubrum) was “Minimal to no effect”. The “effect of single component” value (Trichophyton rubrum; listed as nitrites) was “no significant effect”.
